According to US6825230B2, “Spiro and dispiro 1,2,4-trixolane antimalarials” (Medicines for Malaria Venture MMV, priority 2002, dated 2004):

Test system: Schistosoma mansoni 21-day-old schistosomules
Assay: Effect on 21-day-old schistosomules in infected mice
Type: in vivo
Conditions: single 200 mg/kg per os, 21-day-old schistosomules; for % reduction of schistosomule growth at day 21 after per os application of 200 mg/kg, FWR (%): female worm reduction rate; for % reduction of schistosomule growth at day 21 after per os application of 200 mg/kg, TWR (%): total worm reduction rate
Description: Mice were infected with 100 Schistosoma mansoni cercariae on day 21 post-treatment. Each group was treated per os with trioxolanes at a single dose of 200 mg/kg. […] All groups were killed 4 weeks after treatment and the liver and intestine were removed and separated. The liver and intestine were compressed and alive male and female worms could be seen and counted. The effect of the compounds was evaluated by mean total and female worm burden.

| Compound | % reduction of schistosomule growth at day 21 after per os application of 200 mg/kg, FWR (%) | % reduction of schistosomule growth at day 21 after per os application of 200 mg/kg, TWR (%) |
| --- | --- | --- |
| ON=C1CCC2(CC1)OOC1(O2)C2CC3CC(C2)CC1C3 (stereo not drawn) [OZ16] | 77% | 78% |
| c1ccc(CON=C2CCC3(CC2)OOC2(O3)C3CC4CC(C3)CC2C4)cc1 (stereo not drawn) [OZ19] | 74% | 77% |
| C1CC2(CCO1)OOC1(O2)C2CC3CC(C2)CC1C3 (stereo not drawn) [OZ22] | 76% | 75% |
| CC1(C)CC(C)(C)CC2(C1)OOC1(O2)C2CC3CC(C2)CC1C3 (stereo not drawn) [OZ26] | 40% | 37% |
| CC(C)(C)ON=C1CCC2(CC1)OOC1(O2)C2CC3CC(C2)CC1C3 (stereo not drawn) [OZ28] | 87% | 81% |
| O=C(NN=C1CCC2(CC1)OOC1(O2)C2CC3CC(C2)CC1C3)Nc1ccccc1 (stereo not drawn) [OZ30] | 12% | 16% |
| CC1(C)CCC2(CC1)OOC1(O2)C2CC3CC(C2)CC1C3 (stereo not drawn) [OZ33] | 14% | 28% |
| CC(C)(C)OC(=O)N1CCC2(CC1)OOC1(O2)C2CC3CC(C2)CC1C3 (stereo not drawn) [OZ35] | 63% | 73% |
| CON=C1CC2CC3(CC2C1)OOC1(O3)C2CC3CC(C2)CC1C3 (stereo not drawn) [OZ37] | 53% | 63% |
